In experiment [1] the target is IKKε (Homo sapiens (Human), UniProt Q14164). Kind of experiment: IKKε kinase assay (384-well flashplate assay). The format is biochemical. Conditions: 1 nM IKKε, 10 μM ATP, 30° C., 2 hours; read-out: IKKε enzyme assay IC50. The essentials: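 Recombinant IKKε (1 nM) phosphorylates biotinylated IκBα(19-42) peptide (800 nM) with 10 μM ATP spiked with ^33P-ATP, 2 h at 30° C in MOPS buffer pH 7.5. Stopped with EDTA, captured on flashplate, radioactivity counted; nonspecific signal defined with 3 μM BX-795; IC50 derived.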

For experiment [2], the target named is TANK binding kinase (TBK1) (Homo sapiens (Human), UniProt Q9UHD2). The experiment can be described thus: TBK1 enzyme assay (384-well flashplate kinase assay). The class given is biochemical. As to conditions: 0.6 nM TBK1, 10 μM ATP, 30° C., 120 min.
In experiment [3] the test system is TBK1 + IKKε (phospho-IRF3 @ Ser 386, MDA-MB-468 cells). Kind of experiment: TBK1 + IKKε cell assay: dose response inhibition of phospho-IRF3 @ Ser 386 in MDA-MB-468 cells. The format is cell-based. Conditions: Homo sapiens, poly(I:C) stimulation, nuclear phospho-IRF3, read-out: TBK1 + IKKε cell assay IC50.
Procedure: Day 1: MDA-MB-468 cells are detached using HyQ-Tase, counted and sown into a 384-well plate with TC surface and clear bottom in a density of 10,000 cells per well in a total volume of 35 μl of complete medium. Alternatively, the cells are sown directly from frozen glass vials.
Day 2: The cells are pre-treated with inhibitor compounds for 1 h prior to poly(I:C) stimulation. After incubation for 2 h with poly(I:C), the cells are fixed in (para)formaldehyde (PFA) and permeabilised using methanol (MeOH). The cells are then blocked and incubated with an anti-pIRF3 antibody at 4° C. overnight.
Day 3: The primary antibody is washed off, an AlexaFluor488-conjugated secondary antibody is added, the cells are contrast-stained with propidium iodide, followed by image acquisition on an IMX ultra-high content reader.

This note sets out measurements from US8969335B2, “Benzonitrile derivatives as kinase inhibitors” (MERCK PATENT GmbH, priority 2011, dated 2015).

By IC50 is commonly meant the midpoint of a concentration-inhibition curve.

Chain of TANK binding kinase (TBK1) (Q9UHD2 whole entry): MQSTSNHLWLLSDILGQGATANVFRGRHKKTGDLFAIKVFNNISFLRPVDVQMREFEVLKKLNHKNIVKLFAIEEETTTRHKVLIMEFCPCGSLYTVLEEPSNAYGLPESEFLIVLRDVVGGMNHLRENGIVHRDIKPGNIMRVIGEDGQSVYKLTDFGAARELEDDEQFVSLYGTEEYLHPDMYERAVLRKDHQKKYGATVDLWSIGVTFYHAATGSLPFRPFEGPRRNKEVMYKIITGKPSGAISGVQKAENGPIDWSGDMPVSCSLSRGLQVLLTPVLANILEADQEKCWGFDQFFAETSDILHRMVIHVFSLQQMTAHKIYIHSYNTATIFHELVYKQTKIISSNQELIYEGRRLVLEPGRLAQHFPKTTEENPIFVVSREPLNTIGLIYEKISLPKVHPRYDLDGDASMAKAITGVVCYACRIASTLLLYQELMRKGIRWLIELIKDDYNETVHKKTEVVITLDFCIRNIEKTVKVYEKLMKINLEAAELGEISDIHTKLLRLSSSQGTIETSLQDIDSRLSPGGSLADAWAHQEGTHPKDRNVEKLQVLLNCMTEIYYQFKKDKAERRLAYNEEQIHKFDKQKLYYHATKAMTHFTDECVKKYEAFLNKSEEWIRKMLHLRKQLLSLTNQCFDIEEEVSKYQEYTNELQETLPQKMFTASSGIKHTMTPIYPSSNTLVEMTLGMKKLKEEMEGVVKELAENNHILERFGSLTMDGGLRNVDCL
Chain of IKKε (Q14164 whole entry): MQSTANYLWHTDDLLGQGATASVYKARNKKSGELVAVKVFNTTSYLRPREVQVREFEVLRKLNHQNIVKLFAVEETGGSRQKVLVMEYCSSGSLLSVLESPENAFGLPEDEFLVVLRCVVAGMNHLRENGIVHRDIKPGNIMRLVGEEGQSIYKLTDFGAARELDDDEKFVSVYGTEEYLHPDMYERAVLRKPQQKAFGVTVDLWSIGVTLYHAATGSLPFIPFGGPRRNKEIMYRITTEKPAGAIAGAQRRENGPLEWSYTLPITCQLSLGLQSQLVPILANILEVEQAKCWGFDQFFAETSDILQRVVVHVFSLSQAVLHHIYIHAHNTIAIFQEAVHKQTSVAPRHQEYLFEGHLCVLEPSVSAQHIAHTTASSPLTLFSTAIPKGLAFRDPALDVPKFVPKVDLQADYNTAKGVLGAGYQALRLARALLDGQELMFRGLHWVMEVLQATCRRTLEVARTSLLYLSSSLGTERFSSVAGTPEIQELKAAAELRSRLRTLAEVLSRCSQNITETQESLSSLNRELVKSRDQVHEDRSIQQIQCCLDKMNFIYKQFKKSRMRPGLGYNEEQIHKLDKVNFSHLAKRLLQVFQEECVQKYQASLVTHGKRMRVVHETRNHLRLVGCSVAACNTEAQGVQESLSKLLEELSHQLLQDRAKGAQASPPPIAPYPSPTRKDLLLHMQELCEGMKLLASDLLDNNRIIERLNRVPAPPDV

Consider `N#Cc1cc(-c2ccnc(Nc3cc(C4CC4)n[nH]3)c2)ccc1OC1CCOCC1` [Compound A12, 5-[2-(5-Cyclopropyl-2H-pyrazol-3-ylamino)pyridin-4-yl]-2-(tetrahydropyran-4-yloxy)benzonitrile], for which the half-inhibitory concentration (IC50) worked out at 0.025 µM in experiment [1], 0.03 µM in experiment [2] and 1.3 µM in experiment [3].
For `N#Cc1cc(-c2ccnc(Nc3cnn(CCO)c3)n2)ccc1OCC1CCC1` [Compound A94, 2-cyclobutylmethoxy-5-{2-[1-(2-hydroxyethyl)-1H-pyrazol-4-ylamino]pyrimidin-4-yl}benzonitrile], the half-inhibitory concentration (IC50) in experiment [1] is 0.018 µM; in experiment [2], 0.014 µM; in experiment [3] it was 0.98 µM.
Take `N#Cc1cc(-c2ccnc(Nc3cnn(C4CCNC4)c3)c2)ccc1OC1CCOCC1` (stereo not drawn) [Compound A28, 5-[2-(1-Pyrrolidin-3-yl-1H-pyrazol-4-ylamino)pyridin-4-yl]-2-(tetrahydropyran-4-yloxy)benzonitrile]: the IC50 was 0.074 µM in experiment [1], 0.28 µM in experiment [2] and 23 µM in experiment [3].
For the molecule `N#Cc1cc(-c2ccnc(Nc3ccc(N4CCOCC4)cn3)c2)ccc1OC1CCOCC1` [Compound A7, 5-[2-(5-Morpholin-4-ylpyridin-2-ylamino)pyridin-4-yl]-2-(tetrahydropyran-4-yloxy)benzonitrile], the concentration for half-maximal inhibition (IC50) was found to be 0.015 µM in experiment [1], 0.008 µM in experiment [2] and 0.35 µM in experiment [3].
With `N#Cc1cc(-c2ccnc(Nc3cnn(CCC4CCN(C(=O)CO)CC4)c3)c2)ccc1OC1CCOCC1` [Compound A29, 5-[2-(1-{2-[1-(2-Hydroxyacetyl)piperidin-4-yl]ethyl}-1H-pyrazol-4-ylamino)pyridin-4-yl]-2-(tetrahydropyran-4-yloxy)benzonitrile], the figures for the IC50 in experiment [1], in experiment [2] and in experiment [3] were 0.088 µM, 0.12 µM and 6.7 µM, respectively.
As for `N#Cc1cc(-c2ccnc(Nc3cnc(CO)cn3)c2)ccc1OC1CCOCC1` [Compound A99, 5-[2-(5-hydroxymethylpyrazin-2-ylamino)pyridin-4-yl]-2-(tetrahydropyran-4-yloxy)benzonitrile], the IC50 in experiment [1] turned out to be 0.008 µM; in experiment [2], 0.006 µM; in experiment [3], 0.32 µM.
On the same counts, the results for `N#Cc1cc(-c2ccnc(Nc3cncc(C4CCNCC4)n3)c2)ccc1OC1CCOCC1` [Compound A96, 5-[2-(6-piperidin-4-ylpyrazin-2-ylamino)pyridin-4-yl]-2-(tetrahydropyran-4-yloxy)benzonitrile] are 0.04 µM, 0.024 µM and 5.4 µM.
In the case of `COc1nc(Nc2nccc(-c3ccc(OC4CCOCC4)c(C#N)c3)n2)ccc1C1=CCNCC1` [Compound A76, 5-[2-(2-methoxy-1′,2′,3′,6′-tetrahydro[3,4′]bipyridinyl-6-ylamino)pyrimidin-4-yl]-2-(tetrahydropyran-4-yloxy)benzonitrile], the results for the concentration for half-maximal inhibition (IC50) in experiment [1], in experiment [2] and in experiment [3] were 0.021 µM, 0.027 µM and 6.1 µM, respectively.
